Reference: patent US6306876A, “4-[aryl(8-azabicyclo[3.2.1]octan-3-yl)]aminobenzoic acid derivatives” (priority 2000, dated 2001)

Biological target: T1, delta-opioid receptor (Rattus norvegicus, UniProt P33533)
T1 construct: from tissue; host or cells: forebrain particulate (membrane) preparation of male Wistar rats (animals from Charles River, Kingston, N.Y.)
Assay: Rat Brain Delta-Opioid Receptor Binding Assay
Set-up: species or system rat (Wistar)
Details: rat forebrain homogenate, [3H]DPDPE, 25° C., pH 7.4; read-out: Delta K

T1 sequence (P33533 whole entry): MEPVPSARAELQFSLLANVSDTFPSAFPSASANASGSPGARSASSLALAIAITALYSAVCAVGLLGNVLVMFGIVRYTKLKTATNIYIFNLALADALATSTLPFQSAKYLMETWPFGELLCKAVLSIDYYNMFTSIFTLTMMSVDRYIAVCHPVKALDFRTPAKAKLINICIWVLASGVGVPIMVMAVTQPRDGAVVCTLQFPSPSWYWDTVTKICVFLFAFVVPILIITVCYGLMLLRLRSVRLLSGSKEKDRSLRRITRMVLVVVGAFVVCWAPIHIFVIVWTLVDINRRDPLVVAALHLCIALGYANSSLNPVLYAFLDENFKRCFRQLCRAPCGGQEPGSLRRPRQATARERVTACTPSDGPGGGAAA

**Q.** `CN1C2CCC1CC(N(c1ccccc1)c1cccc(C(=O)OC(C)(C)C)c1)C2` (stereo not drawn) [Example 38, 1,1-Dimethylethyl 3-[phenyl(endo-8-methyl-8-azabicyclo[3.2.1]octan-3-yl)amino]benzoate] was tested. Which Ki did it give?
**A.** 459 nM
